{"source": "patent US20120301551A1", "about": "“COMPOUNDS AND COMPOSITIONS FOR TREATING NEURONAL DEATH OR NEUROLOGICAL DYSFUNCTION” (Neurotech Pharmaceuticals Co., Ltd., priority 2005, published 2012)", "key": {"Fas-FADD interaction": {"tested_on": "Fas-FADD interaction", "experiment": "Fas-FADD interaction in serum-deprived neuron-rich cultures (immunoprecipitation, Western blot)", "assay_type": "cell-based, mouse", "conditions": "deprived of serum for 8 hr", "procedure": "(B) Neuron-rich cortical cell cultures (DIV 7) were deprived of serum, alone or with addition of 100 μM zVADfmk, 1 μM 2-hydroxy TTBA, or 5 mM Li^+. Neuronal death was analyzed 24 hr later by counting viable neurons excluding trypan (mean±SEM, n=4). *, Significant difference from the relevant control (serum deprivation alone), p<0.05 using ANOVA and Student-Neuman-Keuls test. (C) Western blot analysis of FADD antibody following immunoprecipitation with Fas antibody in the same samples above.\nAdditional experiments were performed to examine if targeting both neuronal cell necrosis and apoptosis would result in synergic neuroprotection in […] transgenic mice. […] Neuronal cell apoptosis was induced by serum deprivation in neuron-rich cortical cell cultures as reported, which was prevented by addition of 5 mM Li^+ as well as zVADfmk, a broad spectrum inhibitor of caspases (FIG. 5B). […] Additional experiments were performed to examine if Li^+ would prevent Fas signaling pathway. […] This implies that 2-Hydroxy-TTBA and Li^+ blocks oxidative neuronal cell necrosis and apoptosis, respectively."}, "[1]": {"experiment": "single-dose toxicity test", "conditions": "mouse, in vivo; single dose", "procedure": "Single-dose toxicity test of compounds showing good results in the above three efficacy tests were evaluated."}, "[2]": {"tested_on": "reactive oxygen species (ROS) in cortical cell cultures", "experiment": "ROS production in cortical cell cultures exposed to FeCl2 (DCF fluorescence)", "assay_type": "cell-based", "conditions": "1 uM; 50 uM FeCl2", "procedure": "It was evaluated whether chemical 01 suppresses reactive oxygen species (ROS) increased by FeCl2. Cortical cell cultures (DIV 11-14) were continuously exposed to 50 uM FeCl2 alone or with inclusion of 1 uM of chemical 01. Then, the fluorescent intensity of 6-carboxy-2′,7′-dichlorofluorescin diacetate (oxidation product of DCDHF-DA) was evaluated (mean±SEM, n=3)."}, "TNF-α": {"tested_on": "TNF-α", "experiment": "LPS-induced TNF-α production in BV2 cells", "assay_type": "cell-based", "conditions": "100 uM; 1 ug/ml LPS, 4 hours", "procedure": "Suppressing effects of chemical 01 in BV2 cell lines on production of IL-1β, IL-6 or TNF-α were evaluated. BV2 cells were exposed to 1 ug/ml LPS (inflammation-inducing material) with inclusion of chemical 01 at indicated doses. After 4 hours, supernatant were collected and concentrations of TNF-a were evaluated. In addition, BV2 cells were treated by the same method, and 24 hours later, supernatant were collected and concentrations of IL-1β and IL-6 were evaluated (mean±SEM, n=3). BV2 cells treated with LPS only were used as control."}, "Tg2576 transgenic mice [3]": {"tested_on": "Tg2576 transgenic mice", "experiment": "amyloid plaque burden in Tg2576 transgenic mice (Thioflavin-S)", "assay_type": "in vivo, mouse", "procedure": "[…] 18˜20 um brain cryo-sections were stained with 1% Thioflavin-S for 5 minutes and observed under fluorescence microscope system. Amyloid plaque burden/brain was quantified with MetaVue Image software (mean±SEM, n=2).\n[…] 18˜20 μm brain sections stained 1% Thioflavin-S for 5 min and observed under fluorescence microscope system."}, "Tg2576 transgenic mice [4]": {"tested_on": "Tg2576 transgenic mice", "experiment": "Morris water maze in Tg2576 transgenic mice", "assay_type": "in vivo, mouse", "conditions": "25 mg/kg/day for 5 months (9~14 months)", "procedure": "14 month-old Tg2576 transgenic mice were fed chow alone, or containing 25 mg/kg/day of chemical 01, for 5 months (9˜14 months). After administration of 5 months, the cognitive function was analyzed by Morris water maze test. Training was performed 4 times a day (4 trials/day) for 5 days. If mouse stay on the platform for over 10 seconds, it is thought to be a success. After 5 days of experiments, the latency to find the platform was recorded and analyzed for each mouse (mean±SEM, n=2).\n14 month-old Tg2576 transgenic mice were fed chow alone (saline only), or containing 25 mg/kg/day of chemical—01, for 5 months (9˜14 month).\nThe cognitive function was analyzed by Morris water maze test. Mice ware trained to perform a hidden platform task in the Morris water maze. The latency to find the platform was recorded for each mouse."}, "[5]": {"tested_on": "APPswe/PS1deltaE9 double transgenic mice", "experiment": "elevated plus maze in APPswe/PS1deltaE9 double transgenic mice", "assay_type": "in vivo, mouse", "conditions": "25 mg/kg/day for 14.5 months (3~17.5 months)", "procedure": "After administration of 14.5 months, Elevated plus maze test was performed to evaluate the behavior improvement like example 10-3-2 (mean±SEM, n=3-5).\n17.5 month-old APPswe/PS1deltaE9 double transgenic mice were fed chow alone (saline only), or containing 25 mg/kg/day of chemical—01, for […] (3˜17.5 month).\nThe anxiety function was analyzed by elevated plus maze test. The time spent in the open arm was recorded in the elevated plus maze."}, "G93A mouse": {"tested_on": "G93A mouse", "experiment": "motor performance, onset and survival in G93A mouse (chemical 01)", "assay_type": "in vivo", "procedure": "G93A (Glycine Alanine) mouse having similar pathophysiological characteristics with ALS human patient was used to evaluate therapeutic effect of drug in ALS (amyotrophic lateral sclerosis), one of main degenerative brain diseases. It was analyzed whether treatment with 5 mg/kg/day or 20 mg/kg/day of chemical 01 improved motor performance ability or not.\nIn PaGE test and Rotarod test, onset and mortality were analyzed for four mice per each group (FIGS. 13C-D). […] In survival ability, G93A mouse fed with chow only, G93A mouse treated with 5 mg/kg/day of chemical 01 and G93A mouse treated with 20 mg/kg/day of chemical 01 survived for 131.57 days, 153.13 days, and 150.73 days, respectively. Treatment with chemical 01 extended survival rate of G93A mouse (FIG. 13D)."}, "[6]": {"tested_on": "cerebral cortical cell cultures", "experiment": "nerve cell death by MPP+ in cerebral cortical cell cultures (LDH)", "assay_type": "cell-based", "conditions": "50 uM MPP+", "procedure": "Cerebral cortical cell cultures (DIV 13˜15) were continuously exposed to 50 uM MPP+ alone or with inclusion of 0.03-3 uM of chemical 01. After 24 hours, activity of LDH released outside cell was evaluated to quantify death of nerve cell (mean±SEM, n=4 culture well/each group)."}, "NO": {"tested_on": "NO", "experiment": "LPS-induced NO in mesencephalic cultures", "assay_type": "cell-based", "conditions": "5 ng/ml LPS; 0-100 uM; 24 hours", "procedure": "Mesencephalic nerve cell cultures were pre-treated with 5 ng/ml of LPS for 30 minutes to make a cull culture model of Parkinson's disease, and then 0-100 uM of chemical 01 were added. The level of NO was evaluated 24 hours after administration of chemical 01, and the level of TNF-a was evaluated 3 hours after administration of chemical 01 (mean±SEM, n=7-12 culture well/each group)."}}}
{"compound": "O=C(O)c1cc(NCc2c(F)c(F)c(C(F)(F)F)c(F)c2F)ccc1O", "note": "[2-Hydroxy-TTBA, 2-hydroxy-5-(2,3,5,6-tetrafluoro-4-trifluoromethyl-benzylamino)-benzoic acid]", "values": [{"measurement": "Fas-FADD interaction, effect in words", "setting": "Fas-FADD interaction", "value": "not"}]}
{"compound": "O=C(O)c1cc(NCCc2ccc(C(F)(F)F)cc2)ccc1O", "note": "[chemical 01, 2-Hydroxy-5-[2-(4-trifluoromethyl-phenyl)-ethylamino]-benzoic acid]", "values": [{"measurement": "LD50", "setting": "[1]", "value": "> 3000", "unit": "mg/kg"}, {"measurement": "production of ROS in cell increased by FeCl2", "setting": "[2]", "value": "suppressed"}, {"measurement": "decrease of TNF-α released into media", "setting": "TNF-α", "value": "~70", "unit": "%"}, {"measurement": "amyloid plaque burden, in words", "setting": "Tg2576 transgenic mice [3]; 25 mg/kg/d for 8 months (9~17 month)", "value": "reduced significantly"}, {"measurement": "reduction of amyloid plaque burden compared to control", "setting": "Tg2576 transgenic mice [3]; 25 mg/kg/day in chow for 8 months (9~17 months)", "value": 39.2, "unit": "%"}, {"measurement": "reduction in plaque burden", "setting": "Tg2576 transgenic mice [3]; 100 mg/kg/day for 6 months (from 6 to 12 months)", "value": 62, "unit": "%"}, {"measurement": "escape latency (latency to find the platform)", "setting": "Tg2576 transgenic mice [4]", "value": "shorter"}, {"measurement": "time spent in the open arm", "setting": "[5]", "value": "decreased the time"}, {"measurement": "time spent in the open arm", "setting": "[5]; listed as chemical—01", "value": "spent less time"}, {"measurement": "survival", "setting": "G93A mouse; 5 mg/kg/day", "value": 153.13, "unit": "days"}, {"measurement": "onset", "setting": "G93A mouse; 5 mg/kg/day or 20 mg/kg/day", "value": 125.67, "unit": "days"}, {"measurement": "survival", "setting": "G93A mouse; 20 mg/kg/day", "value": 150.73, "unit": "days"}, {"measurement": "motor performance versus control fed with general chow only (Rotarod, PaGE)", "setting": "G93A mouse; 5 or 20 mg/kg/day in chow, from 14 weeks to 17 weeks", "value": "better motor performance"}, {"measurement": "IC50", "setting": "[6]; 24 hours, LDH, read-out: IC50, nerve cell death caused by MPP+", "value": 57, "unit": "nM"}, {"measurement": "nerve cell death caused by MPP+, in words", "setting": "[6]; 0.03-3 uM", "value": "dose-dependent manner"}, {"measurement": "increase of NO caused by LPS", "setting": "NO", "value": "dose-dependent manner"}]}
